# Laboratory results: patent publication US11261186B2, “Biaryl derivative as GPR120 agonist” (LG CHEM, LTD., priority 2014, dated 2022)
# pEC50: −log10 of the molar value.
# Biological target: T1, hGPR120 (Homo sapiens, UniProt Q5NUL3)
# T1 construct: expressed in transfected cells; host or cells: CHO-K1
# T1 sequence (Q5NUL3 1-361): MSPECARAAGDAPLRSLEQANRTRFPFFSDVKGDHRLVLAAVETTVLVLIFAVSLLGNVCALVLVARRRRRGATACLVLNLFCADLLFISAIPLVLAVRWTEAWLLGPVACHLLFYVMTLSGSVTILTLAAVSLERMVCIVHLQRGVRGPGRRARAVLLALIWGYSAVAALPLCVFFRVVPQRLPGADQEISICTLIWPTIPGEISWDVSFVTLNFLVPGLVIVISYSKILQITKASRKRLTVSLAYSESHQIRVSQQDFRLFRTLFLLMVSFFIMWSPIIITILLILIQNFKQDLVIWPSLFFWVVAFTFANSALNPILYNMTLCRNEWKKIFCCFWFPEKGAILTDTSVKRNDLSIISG
# Assay: Measurement of Activity of GPR120 Agonist (Cell-Based Assay), Calcium 5 dye fluorescence
# Conditions: CHO-K1 cells expressing Ga16 and hGPR120
# Method: CHO-K1 cells expressing Ga16 and hGPR120 were dispensed into each well of a 96-well plate (3×10^4 cells/100 μl/well) and then incubated in 5% CO2, 37° C. incubator for 18 hours. Each well was treated with 100 μl of Calcium 5 dye (Molecular Devices) solution including 2% DMSO and then incubated in 5% CO2, 37° C. incubator for 1 hour. Serially diluted GPR120 agonists were prepared to a final concentration of 0.5% DMSO in a 96-well plate. Each well was treated with 50 μl of the agonist compounds using Plexstation II, and then fluorescence was measured at Ex 485 nm and Em 525 nm.
# Fluorescence increased by the serially diluted GPR120 agonists is calculated as a relative percent (%) value based on the fluorescence represented by the treatment of 1% DMSO only. […] The calculation of measurement was carried out by using statistical software (Prizm).
# Activity is denoted based on the following criteria: […]
row,SMILES,pEC50
1,"CC(CCCC(=O)O)c1c(F)cc(-c2cccc(NC3CCCC3)c2)cc1F (stereo not shown) [Example 52, 5-(3′-cyclopentylamino-3,5-difluoro-biphenyl-4-yl)-hexanoic acid]",> 6.70
2,"CC(C)Sc1cccc(-c2cc(F)c(C(C)CCCC(=O)O)c(F)c2)n1 (stereo not shown) [Example 53, 5-[2,6-difluoro-4-(6-isopropylsulfanyl-2-pyridyl)-phenyl]hexanoic acid]",> 6.70
3,"CC(CCCC(=O)O)c1c(F)cc(-c2cccc(SC3CCCC3)n2)cc1F (stereo not shown) [Example 54, 5-[4-(6-cyclopentylsulfanyl-2-pyridyl)-2,6-difluoro-phenyl]hexanoic acid]",> 6.70
4,"CCCSc1cccc(-c2cc(F)c(C(C)CCCC(=O)O)c(F)c2)n1 (stereo not shown) [Example 55, 5-[2,6-difluoro-4-(6-propylsulfanyl-2-pyridyl)phenyl]hexanoic acid]",> 6.70
5,"CC(CCCC(=O)O)c1c(F)cc(-c2cccc(OC3CCCC3)n2)cc1F (stereo not shown) [Example 56, 5-[4-(6-cyclopentoxy-2-pyridyl)-2,6-difluoro-phenyl]hexanoic acid]",> 6.70
6,"CC(CCCC(=O)O)c1c(F)cc(-c2cccnc2OC2CCC2)cc1F (stereo not shown) [Example 59, 5-[4-(2-cyclobutoxy-3-pyridyl)-2,6-difluoro-phenyl]hexanoic acid]",> 6.70
7,"CC(CCCC(=O)O)c1c(F)cc(-c2cccnc2OCC2CC2)cc1F (stereo not shown) [Example 60, 5-[4-(2-cyclopropylmethoxy-3-pyridyl)-2,6-difluoro-phenyl]hexanoic acid]",> 6.70
8,"Oc1cc(COc2c(F)cc(-c3cccnc3SC3CCC3)cc2F)on1 [Example 61, 5-[[4-(2-cyclobutylsulfanyl-3-pyridyl)-2,6-difluoro-phenoxy]methyl]isoxazol-3-ol]",> 6.70
9,"CCCSc1ncccc1-c1ccc(CCCc2noc(=O)[nH]2)cc1 [Example 63, 3-[3-[4-(2-propylsulfanyl-3-pyridyl)phenyl]propyl]-4H-1,2,4-oxadiazol-5-one]",4.70 to 5.70
10,"CCCSc1ncccc1-c1ccc(CCCc2noc(=S)[nH]2)cc1 [Example 64, 3-[3-[4-(2-propylsulfanyl-3-pyridyl)phenyl]propyl]-4H-1,2,4-oxadiazol-5-thione]",4.70 to 5.70
11,"Oc1cc(COc2c(F)cc(-c3cccnc3SC3CCCC3)cc2F)on1 [Example 65, 5-[[4-(2-cyclopentylsulfanyl-3-pyridyl)-2,6-difluoro-phenoxy]methyl]isoxazol-3-ol]",> 6.70
12,"CCCSc1ncccc1-c1cc(F)c(OCc2cc(O)no2)c(F)c1 [Example 66, 5-[[2,6-difluoro-4-(2-propylsulfanyl-3-pyridyl)phenoxy]methyl]isoxazol-3-ol]",> 6.70
13,"Oc1cc(COc2c(F)cc(-c3cccnc3OC3CCCC3)cc2F)on1 [Example 67, 5-[[4-[2-(cyclopentoxy)-3-pyridyl]-2,6-difluoro-phenoxy]methyl]isoxazol-3-ol]",> 6.70
14,"CC(C)Sc1ncccc1-c1cc(F)c(OCc2cc(O)no2)c(F)c1 [Example 68, 5-[[2,6-difluoro-4-(2-isopropylsulfanyl-3-pyridyl)phenoxy]methyl]isoxazol-3-ol]",> 6.70
15,"CC(C)Oc1ncccc1-c1cc(F)c(OCc2cc(O)no2)c(F)c1 [Example 69, 5-[[2,6-difluoro-4-(2-isopropoxy-3-pyridyl)phenoxy]methyl]isoxazol-3-ol]",> 6.70
16,"CC(C)Sc1cccc(-c2cc(F)c(OCc3cc(O)no3)c(F)c2)n1 [Example 70, 5-[[2,6-difluoro-4-(6-isopropylsulfanyl-2-pyridyl)phenoxy]methyl]isoxazol-3-ol]",> 6.70
17,"CC(C)Oc1cccc(-c2cc(F)c(OCc3cc(O)no3)c(F)c2)n1 [Example 71, 5-[[2,6-difluoro-4-(6-isopropoxy-2-pyridyl)phenoxy]methyl]isoxazol-3-ol]",> 6.70
18,"Oc1cc(COc2c(F)cc(-c3cccc(OCC4CC4)n3)cc2F)on1 [Example 72, 5-[[4-[6-(cyclopropylmethoxy)-2-pyridyl]-2,6-difluoro-phenoxy]methyl]isoxazol-3-ol]",> 6.70
19,"CCCOc1cccc(-c2cc(F)c(OCc3cc(O)no3)c(F)c2)n1 [Example 73, 5-[[2,6-difluoro-4-(6-propoxy-2-pyridyl)phenoxy]methyl]isoxazol-3-ol]",> 6.70
20,"CCCOc1ncccc1-c1cc(F)c(OCc2cc(O)no2)c(F)c1 [Example 74, 5-[[2,6-difluoro-4-(2-propoxy-3-pyridyl)phenoxy]methyl]isoxazol-3-ol]",> 6.70

row,SMILES,pEC50
1,"Oc1cc(COc2c(F)cc(-c3cccnc3OC3CCC3)cc2F)on1 [Example 76, 5-[[4-[2-(cyclobutoxy)-3-pyridyl]-2,6-difluoro-phenoxy]methyl]isoxazol-3-ol]",> 6.70
2,"Oc1cc(COc2c(F)cc(-c3cccnc3OCC3CCC3)cc2F)on1 [Example 77, 5-[[4-[2-(cyclobutylmethoxy)-3-pyridyl]-2,6-difluoro-phenoxy]methyl]isoxazol-3-ol]",> 6.70
3,"Oc1ccc(COc2c(F)cc(-c3cccnc3OC3CCCC3)cc2F)cn1 [Example 79, 5-[[4-[2-(cyclopentoxy)-3-pyridyl]-2,6-difluoro-phenoxy]methyl]pyridin-2-ol]",4.70 to 5.70
4,"Oc1cc(CSc2ccc(-c3cccnc3OC3CCCC3)cc2)on1 [Example 81, 5-[[4-[2-(cyclopentoxy)-3-pyridyl]phenyl]sulfanylmethyl]isoxazol-3-ol]",> 6.70
5,"Oc1cc(CSc2c(F)cc(-c3cccnc3OC3CCCC3)cc2F)on1 [Example 83, 5-[[4-[2-(cyclopentoxy)-3-pyridyl]-2,6-difluoro-phenyl]sulfanylmethyl]isoxazol-3-ol]",> 6.70
6,"Oc1cc(CNc2c(F)cc(-c3cccnc3OC3CCCC3)cc2F)on1 [Example 84, 5-[[4-[2-(cyclopentoxy)-3-pyridyl]-2,6-difluoro-anilino]methyl]isoxazol-3-ol]",> 6.70
7,"CN(Cc1cc(O)no1)c1ccc(-c2cccnc2OC2CCCC2)cc1 [Example 86, 5-[[4-[2-(cyclopentoxy)-3-pyridyl]-N-methyl-anilino]methyl]isoxazol-3-ol]",> 6.70
8,"Oc1cc(CCc2c(F)cc(-c3cccnc3OC3CCCC3)cc2F)on1 [Example 87, 5-[2-[4-[2-(cyclopentoxy)-3-pyridyl]-2,6-difluoro-phenyl]ethyl]isoxazol-3-ol]",> 6.70
9,"CC(Cc1cc(O)no1)c1c(F)cc(-c2cccnc2OC2CCCC2)cc1F (stereo not shown) [Example 88, 5-[2-[4-[2-(cyclopentoxy)-3-pyridyl]-2,6-difluoro-phenyl]propyl]isoxazol-3-ol]",> 6.70
10,"Oc1cc(CCOc2c(F)cc(-c3cccnc3OC3CCCC3)cc2F)on1 [Example 89, 5-[2-[4-[2-(cyclopentoxy)-3-pyridyl]-2,6-difluoro-phenoxy]ethyl]isoxazol-3-ol]",> 6.70
11,"Oc1cc(CCNc2c(F)cc(-c3cccnc3OC3CCCC3)cc2F)on1 [Example 90, 5-[2-[4-[2-(cyclopentoxy)-3-pyridyl]-2,6-difluoro-anilino]ethyl]isoxazol-3-ol]",5.70 to 6.70
12,"O=C(O)Cc1cnn(-c2ccc(-c3cccnc3SC3CCC3)cc2)c1 [Example 93, 2-[1-[4-(2-cyclobutylsulfanyl-3-pyridyl)phenyl]pyrazol-4-yl]acetic acid]",4.70 to 5.70
13,"O=C(O)CCCCNc1c(F)cc(-c2cccnc2OC2CCCC2)cc1F [Example 94, 5-[4-[2-(cyclopentoxy)-3-pyridyl]-2,6-difluoro-anilino]pentanoic acid]",> 6.70
14,"CCN(CCCCC(=O)O)c1c(F)cc(-c2cccnc2OC2CCCC2)cc1F [Example 95, 5-[4-[2-(cyclopentoxy)-3-pyridyl]-N-ethyl-2,6-difluoro-anilino]pentanoic acid]",5.70 to 6.70
15,"CC(C)Sc1cccc(-c2cc(F)c(NCCCCC(=O)O)c(F)c2)n1 [Example 96, 5-[2,6-difluoro-4-(6-isopropylsulfanyl-2-pyridyl)anilino]pentanoic acid]",5.70 to 6.70
16,"CC(C)Sc1ncccc1-c1cc(F)c(NCCCCC(=O)O)c(F)c1 [Example 97, 5-[2,6-difluoro-4-(2-isopropylsulfanyl-3-pyridyl)anilino]pentanoic acid]",> 6.70
17,"O=C(O)CCCCNc1c(F)cc(-c2cccc(OCC3CC3)n2)cc1F [Example 98, 5-[4-[6-(cyclopropylmethoxy)-2-pyridyl]-2,6-difluoro-anilino]pentanoic acid]",> 6.70
18,"O=C(O)CCCCNc1c(F)cc(-c2cccnc2OCC2CC2)cc1F [Example 99, 5-[4-[2-(cyclopropylmethoxy)-3-pyridyl]-2,6-difluoro-anilino]pentanoic acid]",> 6.70
19,"O=C(O)CC1CCN(c2c(F)cc(-c3cccnc3SC3CCCC3)cc2F)CC1 [Example 100, 2-[1-[4-(2-cyclopentylsulfanyl-3-pyridyl)-2,6-difluoro-phenyl]-4-piperidyl]acetic acid]",> 6.70
20,"CN(CCCCC(=O)O)c1c(F)cc(-c2cccc(OCC3CC3)n2)cc1F [Example 101, 5-[4-[6-(cyclopropylmethoxy)-2-pyridyl]-2,6-difluoro-N-methyl-anilino]pentanoic acid]",> 6.70
